Patent US20250052749A1, “SYSTEMS AND METHODS OF SELECTING COMPOUNDS THAT INDUCE CONFORMATIONAL CHANGES IN MUTANT CEREBLON” (BRISTOL-MYERS SQUIBB COMPANY, priority 2021, published 2025)
“Also recorded” adds a separate entry of the source.

Experiments:
[1] = target: Cereblon (Homo sapiens, UniProt Q96SW2); assay: Cereblon binding affinity; conditions: CELMoD affinity for Cereblon compared with Pomalidomide/IMiD
[2] = target: T1, Ikaros/Cereblon/DDB1 (Homo sapiens, UniProt Q96SW2); assay: cryo-EM of drug-mediated Ikaros recruitment to Cereblon-DDB1; conditions: wild-type Cereblon/DDB1, FIG. 4C; result in words
T1 construct: human cereblon (amino acids 5-442); ZZ-domain-6×His-thrombin site (cleaved yes); made in house; host or cells: SF9 insect cells (CRBN-DDB1); E. coli BL21 (DE3) Star (Ikaros)
Procedure: (§1) Frozen 20 mg/mL cereblon-DDB1 complexes were thawed and diluted to 5 mg/mL with buffer containing 20 mM HEPES pH 7, 150 mM NaCl, 3 mM TCEP. Immediately prior to plunge-freezing in liquid ethane, samples are diluted 10-fold in the same buffer supplemented with 0.011% Lauryl Maltose-Neopentyl Glycol (LMNG) to limit complex dissociation. Quantifoil 300 mesh R1.2/1.3 UltrAuFoil Holey Gold Films were plasma cleaned for 7 seconds using a Solarus plasma cleaner (Gatan, Inc.) with a 75% nitrogen, 25% oxygen atmosphere at 15 W. Immediately prior to sample application, grids are further pre-treated with 4 μL solution containing 10 μM cereblon binding-deficient mutant Ikaros residues 140-196 Q146A G151N and blotted from behind with torn Whatman 1 filter paper. 4 μL dilute sample is applied, excess sample was blotted away for 4 s and vitrified by manual plunge freezing into a liquid ethane pool cooled by liquid nitrogen using a manual plunger in a 4° C. cold room >95% humidity. Samples containing IMiDs are prepared the same way, with 10× molar equivalent of drug yielding a buffer concentration 20 mM HEPES pH 7, 150 mM NaCl, 3 mM TCEP, <1% DMSO mixed 2 minutes prior to dilution and application to the grid. Similarly, Ikaros samples are prepared by incubation of 2-fold molar excess Ikaros 2 minutes prior to dilution and application to the grid. […]

[3] = target: T2, Cereblon-DDB1 (Homo sapiens, UniProt Q96SW2); assay: hydrogen-deuterium exchange mass spectrometry (HDX-MS) of Cereblon-DDB1 peptides; parameters: made in house; conditions: compared with unliganded DDB1-Cereblon; result in words
Procedure: For peptide identification, differential HDX-MS experiments were conducted as previously described with a few modifications (Chalmers, M. J., et al. (2006). Probing protein ligand interactions by automated hydrogen/deuterium exchange mass spectrometry. Analytical Chemistry, 78(4), 1005-1014). Peptides were identified using tandem MS (MS/MS) with an Orbitrap mass spectrometer (Q Exactive, ThermoFisher). Product ion spectra were acquired in data-dependent mode with the top five most abundant ions selected for the product ion analysis per scan event. The MS/MS data files were submitted to Mascot (Matrix Science) for peptide identification. […] The MASCOT search was repeated against a decoy (reverse) sequence and ambiguous identifications were ruled out and not included in the HDX peptide set. […]
Mass spectrometric data were acquired using an Orbitrap mass spectrometer (Exactive, ThermoFisher). […] The intensity weighted mean m/z centroid value of each peptide envelope was calculated and subsequently converted into a percentage of deuterium incorporation. […] Statistical significance for the differential HDX data is determined by an unpaired t-test for each time point, a procedure that is integrated into the HDX Workbench software (Pascal, B. D., et al. (2012). HDX workbench: software for the analysis of H/D exchange MS data. Journal of the American Society for Mass Spectrometry, 23(9), 1512-1521.). […]

[4] = target: T2, Cereblon-DDB1; assay: cryo-EM population analysis of open/closed Cereblon conformers with saturating IMiD/CELMoD; parameters: human cereblon (amino acids 5-442); ZZ-domain-6×His-thrombin site (cleaved yes); made in house; host or cells: SF9 insect cells; conditions: wild-type Cereblon-DDB1, saturating amount of drug, cryo-EM single-particle analysis
Procedure: as §1

[5] = target: T3, P98A Cereblon-DDB1 (Homo sapiens, UniProt Q96SW2, P98A); assay: cryo-EM of P98A mutant Cereblon saturated with drug along with Ikaros; conditions: for conformation of P98A Cereblon in presence of drug (open/closed) / recruitment of Ikaros Zf 2-3 to P98A mutant Cereblon: result in words; for recruitment of Ikaros Zf 2-3 to P98A mutant Cereblon: FIG. 9
T3 construct: human cereblon (amino acids 5-442); ZZ-domain-6×His-thrombin site (cleaved yes); made in house; host or cells: SF9 insect cells (CRBN-DDB1, by 'as before'); E. coli BL21 (DE3) Star (Ikaros)
Procedure: Frozen 20 mg/mL cereblon-DDB1 complexes were thawed and diluted to 5 mg/mL with buffer containing 20 mM HEPES pH 7, 150 mM NaCl, 3 mM TCEP. Immediately prior to plunge-freezing in liquid ethane, samples are diluted 10-fold in the same buffer supplemented with 0.011% Lauryl Maltose-Neopentyl Glycol (LMNG) to limit complex dissociation. Quantifoil 300 mesh R1.2/1.3 UltrAuFoil Holey Gold Films were plasma cleaned for 7 seconds using a Solarus plasma cleaner (Gatan, Inc.) with a 75% nitrogen, 25% oxygen atmosphere at 15 W. Immediately prior to sample application, grids are further pre-treated with 4 μL solution containing 10 μM cereblon binding-deficient mutant Ikaros residues 140-196 Q146A G151N and blotted from behind with torn Whatman 1 filter paper. 4 μL dilute sample is applied, excess sample was blotted away for 4 s and vitrified by manual plunge freezing into a liquid ethane pool cooled by liquid nitrogen using a manual plunger in a 4° C. cold room >95% humidity. Samples containing IMiDs are prepared the same way, with 10× molar equivalent of drug yielding a buffer concentration 20 mM HEPES pH 7, 150 mM NaCl, 3 mM TCEP, <1% DMSO mixed 2 minutes prior to dilution and application to the grid. Similarly, Ikaros samples are prepared by incubation of 2-fold molar excess Ikaros 2 minutes prior to dilution and application to the grid.
Cryo-EM data were collected on a Thermo-Fisher Talos Arctica transmission electron microscope operating at […] using parallel illumination conditions. Micrographs were acquired using a Gatan K2 Summit direct electron detector, operated in electron counting mode applying a total electron exposure of […]. The Leginon data collection software was used to collect 2912 micrographs at 36,000× nominal magnification (1.15 Å/pixel at the specimen level) with a nominal defocus set to −1.5 μm. Variation from the nominally set defocus due to a ˜5% tilt in the stage gave rise to a defocus range (this tilt was not intentional and required service to correct). Stage movement was used to target the center of sixteen 1.2 μm holes for focusing, and an image shift was used to acquire high magnification images in the center of each of the sixteen targeted holes.

[6] = P98A mutant Cereblon, saturated with drug along with Ikaros

improved affinity [1]	recruitment of Ikaros ZF1-2-3 to CRBN^closed [2]	particles adopting CRBN^closed conformation [4] [%]	SMILES	change in solvent accessibility (HDX differential) upon addition of drug [3]	conformation of P98A Cereblon in presence of drug (open/closed) [5, 6]	recruitment of Ikaros Zf 2-3 to P98A mutant Cereblon [5]	particles adopting CRBN^closed conformation with Ikaros bound [5, 6] [%]
approximately 20 fold	is recruited to CRBN^closed	~50	O=C1CC[C@H](N2Cc3c(OCc4ccc(CN5CCOCC5)cc4)cccc3C2=O)C(=O)N1 [Compound 1, (S)-3-(4-((4-(morpholinomethyl)benzyl)oxy)-1-oxoisoindolin-2-yl)piperidine-2,6-dione]	affected solvency for both the sensor loop and residues within the Lon domain and HB	–	–	–
–	–	–	Nc1cccc2c1C(=O)N(C1CCC(=O)NC1=O)C2=O (stereo not drawn) [Pomalidomide, reference compound]	–	exclusively substrate-free open conformers; also recorded: cannot close	insufficient	–
–	–	–	N#Cc1ccc(N2CCN(Cc3ccc(COc4cccc5c4CN([C@H]4CCC(=O)NC4=O)C5=O)cc3)CC2)c(F)c1 [Compound 2, (S)-4-(4-(4-(((2-(2,6-dioxopiperidin-3-yl)-1-oxoisoindolin-4-yl)oxy)methyl)benzyl)piperazin-1-yl)-3-fluorobenzonitrile]	–	can overcome this mutation	sufficiently recruits Ikaros Zf 2-3	25
